Active and inactive are the calls of the source. No cut-off for these calls is given here.

Here are results for 23 compounds from ChEMBL document CHEMBL3045894, “GLUTATHIONE SYNTHESIS IN FILARIAL WORMS: AN ATTRACTIVE TARGET FOR THE DESIGN AND SYNTHESIS OF NEW ANTIFILARIALS” (Med Chem Res, 2004).

One assay has as its target T1, Probable glutathione reductase 2 (Caenorhabditis elegans) (UniProt P30635).
T1 sequence (whole entry): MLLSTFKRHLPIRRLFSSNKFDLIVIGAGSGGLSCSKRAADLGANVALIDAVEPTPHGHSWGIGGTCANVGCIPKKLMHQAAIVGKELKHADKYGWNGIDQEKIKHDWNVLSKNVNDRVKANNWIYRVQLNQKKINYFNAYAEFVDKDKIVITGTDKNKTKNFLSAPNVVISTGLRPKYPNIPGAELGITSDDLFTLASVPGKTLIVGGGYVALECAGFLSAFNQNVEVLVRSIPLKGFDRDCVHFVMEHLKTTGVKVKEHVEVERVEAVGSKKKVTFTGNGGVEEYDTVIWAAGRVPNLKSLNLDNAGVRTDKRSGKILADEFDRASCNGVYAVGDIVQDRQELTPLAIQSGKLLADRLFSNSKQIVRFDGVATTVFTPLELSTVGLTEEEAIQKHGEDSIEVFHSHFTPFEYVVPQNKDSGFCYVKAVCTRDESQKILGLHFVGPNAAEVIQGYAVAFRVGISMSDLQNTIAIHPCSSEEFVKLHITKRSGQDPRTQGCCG
Nature of the assay: Inhibition of Setaria cervi glutathione reductase at 2 to 200 uM.
A word on the inhibition: it is how much of the control response was suppressed. `CN(C)c1ccc2nc3ccc(=[N+](C)C)cc-3sc2c1` showed an inhibition of 24%.

For the next assay, the target named is T2, Glutamate--cysteine ligase catalytic subunit (Mus musculus) (UniProt P97494).
T2 sequence (whole entry): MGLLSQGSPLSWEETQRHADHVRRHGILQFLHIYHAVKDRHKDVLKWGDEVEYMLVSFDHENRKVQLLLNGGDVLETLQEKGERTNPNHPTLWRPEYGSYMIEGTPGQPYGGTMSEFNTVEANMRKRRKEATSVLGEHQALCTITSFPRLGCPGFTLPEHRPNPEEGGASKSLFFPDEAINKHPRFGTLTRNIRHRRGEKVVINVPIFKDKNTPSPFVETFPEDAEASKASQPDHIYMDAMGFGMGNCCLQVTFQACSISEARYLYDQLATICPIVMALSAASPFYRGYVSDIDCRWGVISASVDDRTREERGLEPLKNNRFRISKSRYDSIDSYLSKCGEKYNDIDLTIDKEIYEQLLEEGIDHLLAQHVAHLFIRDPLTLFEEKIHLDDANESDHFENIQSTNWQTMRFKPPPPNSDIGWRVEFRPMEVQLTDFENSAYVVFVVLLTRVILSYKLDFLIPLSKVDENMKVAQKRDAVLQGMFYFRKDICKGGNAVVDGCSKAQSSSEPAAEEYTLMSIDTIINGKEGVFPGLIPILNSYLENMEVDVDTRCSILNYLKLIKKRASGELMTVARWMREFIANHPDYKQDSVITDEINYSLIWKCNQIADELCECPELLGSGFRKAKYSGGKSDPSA
Nature of the assay: Inhibition of Mus musculus (mouse) glutamate cysteine ligase isolated from liver at 200 uM.
On to `CO[C@@H]1[C@H]2OC(C)(C)O[C@H]2O[C@@H]1[C@@H]1CC(=O)N(Cc2ccccc2)C(=O)N1Cc1ccccc1`, for which the inhibition entry was “inactive”.

Regarding `CO[C@@H]1[C@H]2OC(C)(C)O[C@H]2O[C@@H]1[C@H](CC(N)=O)N(Cc1ccccc1)C(=O)Nc1cccc(C(C)=O)c1`, the inhibition was determined as 18%.

In the next assay the target is T3, Glutamate--cysteine ligase (Onchocerca volvulus) (UniProt Q9NFN6).
T3 sequence (whole entry): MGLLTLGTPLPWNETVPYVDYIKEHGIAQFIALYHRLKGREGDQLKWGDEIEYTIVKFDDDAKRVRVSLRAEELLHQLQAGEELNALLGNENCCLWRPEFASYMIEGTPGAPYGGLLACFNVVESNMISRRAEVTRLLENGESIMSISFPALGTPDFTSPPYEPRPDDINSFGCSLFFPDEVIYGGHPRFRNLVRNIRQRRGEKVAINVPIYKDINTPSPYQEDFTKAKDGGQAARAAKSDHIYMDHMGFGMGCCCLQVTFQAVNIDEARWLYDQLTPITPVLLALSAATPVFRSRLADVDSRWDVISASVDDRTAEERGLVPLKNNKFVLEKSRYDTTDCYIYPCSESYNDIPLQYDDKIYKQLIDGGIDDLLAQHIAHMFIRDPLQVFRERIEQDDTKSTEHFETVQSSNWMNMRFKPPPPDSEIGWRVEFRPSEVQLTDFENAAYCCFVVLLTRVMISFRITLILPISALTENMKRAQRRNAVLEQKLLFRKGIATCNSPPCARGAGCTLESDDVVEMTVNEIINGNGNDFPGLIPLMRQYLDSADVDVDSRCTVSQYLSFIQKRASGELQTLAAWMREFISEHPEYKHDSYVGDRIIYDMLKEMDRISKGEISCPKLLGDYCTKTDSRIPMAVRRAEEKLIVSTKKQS
Nature of the assay: Inhibition of Setaria cervi glutamate cysteine ligase at 0.25 to 200 uM.
In turn, `NCCSSCCN` displayed an inhibition of 19%.

Another assay has as its target T4, Glutathione reductase, mitochondrial (Mus musculus) (UniProt P47791).
T4 sequence (whole entry): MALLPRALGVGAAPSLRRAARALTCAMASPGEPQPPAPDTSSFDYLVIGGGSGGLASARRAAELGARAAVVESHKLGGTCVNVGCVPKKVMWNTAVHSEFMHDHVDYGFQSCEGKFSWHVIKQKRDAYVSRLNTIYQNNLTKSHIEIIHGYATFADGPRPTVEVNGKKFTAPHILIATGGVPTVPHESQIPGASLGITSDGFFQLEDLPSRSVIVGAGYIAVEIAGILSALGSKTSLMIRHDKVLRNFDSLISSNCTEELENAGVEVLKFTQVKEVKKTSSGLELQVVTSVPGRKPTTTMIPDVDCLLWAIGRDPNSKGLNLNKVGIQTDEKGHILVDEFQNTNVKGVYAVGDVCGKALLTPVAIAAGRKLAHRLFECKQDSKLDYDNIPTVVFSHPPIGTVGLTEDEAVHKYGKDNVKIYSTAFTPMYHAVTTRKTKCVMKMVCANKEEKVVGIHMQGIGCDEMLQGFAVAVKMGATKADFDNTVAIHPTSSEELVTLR
Nature of the assay: Inhibition of Mus musculus (mouse) glutathione reductase isolated from liver at 200 uM.
As for `CC1(C)O[C@H]2O[C@H](C(CC(=O)NO)NCc3ccccc3)[C@H](OCc3ccccc3)[C@H]2O1` (stereo partly drawn), the inhibition entry is “inactive”.

`CCOC(=O)C[C@H](C[C@H]1O[C@@H]2OC(C)(C)O[C@@H]2[C@H]1OC)NCc1ccccc1O`: the inhibition entry was “inactive”.

Consider `CCOC(=O)CC([C@H]1O[C@@H]2OC(C)(C)O[C@@H]2[C@H]1OC)N1CCC[C@H]1C(=O)OCC1c2ccccc2-c2ccccc21` (stereo partly drawn), for which the inhibition entry is “inactive”.

On to `CC1(C)O[C@H]2O[C@H]([C@@H]3CC(=O)N(Cc4ccccc4)C(=O)N3Cc3ccccc3)[C@H](OCc3ccccc3)[C@H]2O1`, for which the inhibition entry is “inactive”.

For the compound `CCCc1nccn1C(CC(=O)OCC)[C@H]1O[C@@H]2OC(C)(C)O[C@@H]2[C@H]1OC` (stereo partly drawn), the inhibition result was “inactive”.

As to `CC1(C)O[C@H]2O[C@H](C(CC(=O)NO)N3CCCCC3)[C@H](OCc3ccccc3)[C@H]2O1` (stereo partly drawn), the inhibition entry was “inactive”.

Regarding `COc1ccc(CN2C(=O)N(c3ccc(C(C)=O)cc3)C(=O)C[C@H]2[C@H]2O[C@@H]3OC(C)(C)O[C@@H]3[C@H]2OCc2ccccc2)cc1`, the inhibition result is “inactive”.

Turning to `CCCCCCCN[C@@H](CC(=O)OCC)[C@@H]1O[C@@H]2OC(C)(C)O[C@@H]2[C@H]1OC`, the inhibition result was “inactive”.

As for `CC(=O)c1cccc(N2C(=O)[C@H](CC(C)C)N(C[C@H]3O[C@@H]4OC(C)(C)O[C@@H]4[C@H]3OCc3ccccc3)C2=O)c1`, the inhibition entry was “inactive”.

Consider `CCOC(=O)CC(Nc1ccco1)[C@H]1O[C@@H]2OC(C)(C)O[C@@H]2[C@H]1OCc1ccccc1` (stereo partly drawn), for which the inhibition result is “inactive”.

In turn, `CCCCCCCCCCCCCCCCNC(CC(=O)NO)[C@H]1O[C@@H]2OC(C)(C)O[C@@H]2[C@H]1OC` (stereo partly drawn) returned an inhibition of 71%.

Turning to `CO[C@@H]1[C@H]2OC(C)(C)O[C@H]2O[C@H]1C(CC(=O)O)NCCC(C)CC(C)C` (stereo partly drawn), the inhibition entry is “inactive”.

For `CCCCCCCNC(CC(=O)O)[C@@H]1O[C@@H]2OC(C)(C)O[C@@H]2[C@H]1OC` (stereo partly drawn), the inhibition result was “inactive”.

For the compound `CCOC(=O)CC([C@H]1O[C@@H]2OC(C)(C)O[C@@H]2[C@H]1OC)N(CCC(C)CC(C)C)C(=O)NCc1ccccc1` (stereo partly drawn), the inhibition result is “inactive”.

With `CCOC(=O)C[C@@H](Nc1ccccc1O)[C@H]1O[C@@H]2OC(C)(C)O[C@@H]2[C@H]1OC`, the inhibition result was “inactive”.

For `CCCCCCCCCCCCNC(CC(=O)NO)[C@H]1O[C@@H]2OC(C)(C)O[C@@H]2[C@H]1OCc1ccccc1` (stereo partly drawn), the inhibition entry is “inactive”.

Take `CO[C@@H]1[C@H]2OC(C)(C)O[C@H]2O[C@@H]1C1CC(=O)N(Cc2ccccc2)C(=O)N1CCC(C)CC(C)C` (stereo partly drawn): the inhibition entry was “inactive”.

Consider `CCCCCCCNC(CC(=O)NO)[C@H]1O[C@@H]2OC(C)(C)O[C@@H]2[C@H]1OCc1ccccc1` (stereo partly drawn), for which the inhibition result is “inactive”.

Regarding `CCOC(=O)CC(Nc1ccco1)[C@H]1O[C@@H]2OC(C)(C)O[C@@H]2[C@H]1OC` (stereo partly drawn), the inhibition result was “inactive”.
